Measured values: patent US20050067347A1, “Sustainable process for the treatment and detoxification of liquid waste” (priority 2001, published 2005)

System: Pycnoporus sanguineus MUCL 41582
Experiment: Laccase activity of fungal culture with inductors
Assay type: cell-based
Conditions: for Enzymatic activity: laccase activity, inductor added after 2 days of pre-culture, measured after 5 days of incubation
Method: In an example, the inductors NY3, NY5 and RBBR were added to a fungal culture of Pycnoporus sanguineus MUCL 41582 after 2 days of pre-culture. Laccase activity was measured after 5 days of incubation of the culture with the inductors. Results are indicated in the below-given Table 2 and show clearly that laccase activity is enhanced when the fungus is cultured in the presence of inductors.

| SMILES | Enzymatic activity [nmol/mL] | increase of laccase activity (versus culture without inductor) |
| --- | --- | --- |
| Nc1c(S(=O)(=O)O)cc(NC2CCCCC2)c2c1C(=O)c1ccccc1C2=O [NY3] | 3.87 | – |
| Cc1ccc(OS(=O)(=O)Oc2ccc(Nc3cc(S(=O)(=O)O)c(N)c4c3C(=O)c3ccccc3C4=O)cc2)cc1 [NY5] | 11.60 | more than 20 fold |
| Nc1c(S(=O)(=O)[O-])cc(Nc2cccc(S(=O)(=O)CCOS(=O)(=O)[O-])c2)c2c1C(=O)c1ccccc1C2=O.[Na+].[Na+] [RBBR] | 5.40 | – |
